Source: ChEMBL document CHEMBL3638560, “Picolinamido-propanoic acid derivatives useful as glucagon receptor antagonists” (2014)

Biological target: Glucagon receptor (Homo sapiens, UniProt P47871)
Assay: Binding Assay: The binding assay was performed by a filtration method in a 384 well format. Membranes at a final protein concentration of 6 μg/well were incubated with 125I-glucagon at 0.3 nM and in the presence of compound for 2 hours at room temperature in a total reaction volume of 40 μL per well. Assay buffer consisted of 50 mM HEPES, pH 7.4, 5 mM MgCl2, 1 mM CaCl2 and 0.2% BSA. 30 μL of the reaction was then transferred to PEI treated filter plates and followed by filter aspiration. Plates were then washed 5x and allowed to dry at room temperature overnight. The next day the bottom of the plate was covered with seal tape and scintillant was added. Total counts retained by the filters were quantified with a Top Count instrument.

Glucagon receptor, sequence (P47871 whole entry): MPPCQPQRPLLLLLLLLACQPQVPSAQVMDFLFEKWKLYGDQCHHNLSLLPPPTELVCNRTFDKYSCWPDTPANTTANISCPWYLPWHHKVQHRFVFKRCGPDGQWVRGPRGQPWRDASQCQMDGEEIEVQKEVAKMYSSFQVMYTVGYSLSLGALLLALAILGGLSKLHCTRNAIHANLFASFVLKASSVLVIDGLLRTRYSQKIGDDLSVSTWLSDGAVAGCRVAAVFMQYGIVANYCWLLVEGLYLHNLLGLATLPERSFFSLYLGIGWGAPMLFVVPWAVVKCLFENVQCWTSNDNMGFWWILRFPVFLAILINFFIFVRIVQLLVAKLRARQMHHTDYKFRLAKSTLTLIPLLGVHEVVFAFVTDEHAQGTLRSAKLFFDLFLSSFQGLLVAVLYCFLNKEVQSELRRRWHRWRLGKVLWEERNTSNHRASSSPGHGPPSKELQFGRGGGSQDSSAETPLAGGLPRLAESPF

Ki: 0.047 µM
SMILES: O=C(O)CCNC(=O)c1ccc(-c2cc(C(F)(F)F)ccc2CNc2ccc(-c3ccc(Cl)cc3C(F)(F)F)cc2)cn1
